Data published in article PMC7591920, “A protein tertiary structure mimetic modulator of the Hippo signalling pathway” (Nature Communications, 2020).
Bridge positions count the residues as written; N and C are the ends. Square brackets hold non-standard residues; d marks the D form. Peptide text beside a SMILES is read from it. Orn = NCCC[C@H](N)C(=O)O

Key:
GST-hTEAD1 = target: T1, GST-hTEAD1 (Homo sapiens, UniProt P28347); assay: SPR binding to immobilised GST-hTEAD1; conditions: GST-hTEAD1 amine-coupled on CM5, multi-cycle, steady-state fit 1:1 model, 10 mM HEPES 150 mM NaCl 0.05% Tween-20 pH 7.4, 0.3% DMSO, 20 °C, Fig. 1 values n = 1 replicate
T1 construct: CDNA of hTEAD1(209–426) fused with an N-terminal GST tag; made in house; host or cells: Escherichia coli BL21 DE3 RIL(K+)
T1 sequence (P28347 209-426): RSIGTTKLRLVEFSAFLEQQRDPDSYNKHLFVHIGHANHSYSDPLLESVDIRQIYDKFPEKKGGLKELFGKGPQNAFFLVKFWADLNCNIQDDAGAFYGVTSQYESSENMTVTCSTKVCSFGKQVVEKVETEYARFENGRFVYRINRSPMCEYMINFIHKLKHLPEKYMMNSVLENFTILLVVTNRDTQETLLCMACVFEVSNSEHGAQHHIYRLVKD
Experimental: (§1) Sensor chips Series S CM5 (Research grade) were obtained from GE Healthcare. Prior to use, the sensor chips were equilibrated at room temperature for 15 min to prevent water condensation on the detector side of the sensor chip surface. A running buffer was prepared composed of 10 mM HEPES, 150 mM NaCl, and 0.05% (w/v) Tween-20, pH 7.4, and the system was equilibrated at 20 °C using a flow rate of 30 µL min^−1 after docking of the sensor chip. Ligand binding experiments have been performed applying the concept of multi-cycle kinetics. A contact time of 45 s was selected, followed by a 6-min dissociation phase to allow for complete dissociation of the analyte prior to the next cycle. […] Typically, seven concentrations of the analytes have been examined applying a threefold dilution pattern with 30 µM as top concentration. For the analysis, five running buffer blanks were injected to equilibrate the instrument. […] The carboxyl-dextran surface was activated for 7 min with 0.05 M NHS and 0.2 M EDC, followed by an injection of the proteins in 10 mM MES pH 6.4 at a concentration of 30–50 µg mL^−1. […] This was followed by a deactivation of the residual esters by injecting a solution of 0.5 M ethanolamine pH 8.0 for 7 min before engaging in ligand binding experiments. Reference surfaces were prepared accordingly, omitting the injection of protein over the activated reference surface.

[1] = tested on: primary juvenile (P5–P6) rat cardiomyocytes; assay: Cell cycle activity assay (Ki67/αActinin) in juvenile rat cardiomyocytes; format: cell-based; conditions: c = 10 µM, 4 days, relative to DMSO-treated cells (100), mean of N = 6
Experimental: One day after seeding, the cells were treated with test compounds of interest. Treatments were applied with an ECHO 520 acoustic dispenser (Labcyte) and medium was added to the wells. Four days after treatment, the cells were fixed with 4% formaldehyde (Roth) and immunostained in 0.2% Triton-X100 (Roth) in PBS (Gibco) supplemented with 5% FBS. […] Samples were then imaged and analysed on an ImageXpress XL automated microscope (Molecular Devices). Data are depicted as means ± SEM.

rat heart cells = assay: Cell toxicity assessment on rat heart cells in culture; conditions: c(peptide) = 10 µM
Experimental: whole heart cells monitored by fluorescence microscopy after 90 minutes treatments (scale bar: 25 µm), number of […]
4E as well as control compounds (SB203580, CHIR99021) on rat heart cells in culture (c(peptide) = 10 µM). Number of independent biological replicates: n = 6, error bars = SEM. […]
cytometry analysis of live cells after 90 min incubation at 5 µM: Representative histogram plot, (-) DMSO control). Source data are provided as a Source Data file.
(1 picture or pasted object on this page, not shown here)

mTEAD4 [2] = target: T2, mTEAD4 (Mus musculus, UniProt Q62296); assay: SPR binding to immobilised mTEAD4; conditions: mTEAD4 amine-coupled on CM5, multi-cycle, steady-state fit 1:1 model, 10 mM HEPES 150 mM NaCl 0.05% Tween-20 pH 7.4, 0.3% DMSO, 20 °C, Fig. 1 values n = 1 replicate
T2 construct: Mouse TEAD4(210–427) cDNA fused with a 6x His-tag and a 3C protease cleavage site; 6x His-tag; 3C protease cleavage site; made in house; host or cells: E. coli BL21 DE3 RIL(K+)
T2 sequence (Q62296 210-427): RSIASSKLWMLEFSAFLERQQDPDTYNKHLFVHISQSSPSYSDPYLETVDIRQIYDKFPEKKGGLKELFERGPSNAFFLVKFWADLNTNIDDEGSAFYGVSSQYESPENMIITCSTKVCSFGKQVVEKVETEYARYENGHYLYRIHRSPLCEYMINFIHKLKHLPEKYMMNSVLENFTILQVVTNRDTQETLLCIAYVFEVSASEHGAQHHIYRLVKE
Experimental: as §1

mTEAD4 [3] = target: T2, mTEAD4; assay: Competition fluorescence polarization with mTEAD4 (alanine scan); format: binding; conditions: Ac-peptide vs FITC-labelled tracer peptide 10 nM, mTEAD4 400 nM, 1 h
Experimental: Competition FP: N-terminally acetylated peptides were diluted 1:1 in a 384-well plate (5 μL, 75 μM−9 pM). Ten microlitres of a mixture (1:1) of mTEAD4 and FITC-labelled peptide was added (final concentrations: acetylated peptides = 50 μM−6 pM; mTEAD4 protein = 400 nM; FITC-labelled tracer peptide = 10 nM). After 1 h, FP was measured (λ(ex) = […]). IC50 was determined from the binding curve with GraphPad from Prism.

SMILES | Kd (GST-hTEAD1) [µM] | Kd (mTEAD4 [2]) [µM] | other results
CC[C@H](C)[C@@H]1NC(=O)[C@H](CCC(N)=O)NC(=O)[C@H](CC(C)C)NC(=O)[C@H](Cc2c[nH]c3ccccc23)NC(=O)[C@H]([C@@H](C)O)NC(=O)[C@H](CC(=O)O)NC(=O)CNC(=O)[C@H](CC(C)C)NC(=O)[C@H](C)NC(=O)[C@H](CCCCN)NC(=O)[C@H](C)NC(=O)[C@H](Cc2ccccc2)NC(=O)[C@H](Cc2c[nH]cn2)NC(=O)[C@H](CC(=O)O)NC(=O)[C@@H](NC(=O)[C@@H](NC(=O)[C@H](CO)NC(C)=O)C(C)C)CCC(=O)NCCC[C@@H](C(=O)N[C@@H](C)C(=O)N[C@@H](C)C(N)=O)NC1=O [4D] (Ac-SVEDHFAKALGDTWLQI[Orn]AA-NH2; lactam 3-18) | 1.5 |  | 
Cc1c[nH]c(-c2cnc(NCCNc3ccc(C#N)cn3)nc2-c2ccc(Cl)cc2Cl)n1 [CHIR99021, reference compound] |  |  | Cell cycle activity, MEAN [1]: 152.398; Total cell number (% DMSO control) (rat heart cells; raw data replicate 1): 164.318 % DMSO control; Total cell number (% DMSO control) (rat heart cells; raw data replicate 2): 154.314 % DMSO control; Total cell number (% DMSO control) (rat heart cells; raw data replicate 3): 186.382 % DMSO control; Total cell number (% DMSO control) (rat heart cells; raw data replicate 4): 116.435 % DMSO control; Total cell number (% DMSO control) (rat heart cells; raw data replicate 5): 128.897 % DMSO control; Total cell number (% DMSO control) (rat heart cells; raw data replicate 6): 164.042 % DMSO control
C[S+]([O-])c1ccc(-c2nc(-c3ccncc3)c(-c3ccc(F)cc3)[nH]2)cc1 (centres unmarked) [SB203580, reference compound] |  |  | Cell cycle activity, MEAN [1]: 122.95
CC(=O)N[C@@H](CC(=O)O)C(=O)N1CCC[C@H]1C(=O)N[C@H](C(=O)N[C@H](C(=O)N[C@@H](CCC(=O)O)C(=O)N[C@@H](CCC(=O)O)C(=O)N[C@@H](Cc1c[nH]cn1)C(=O)N[C@@H](Cc1ccccc1)C(=O)N[C@@H](CCCNC(=N)N)C(=O)N[C@@H](CCCNC(=N)N)C(=O)N[C@@H](CO)C(=O)N[C@@H](CC(C)C)C(=O)NCC(=O)N[C@@H](CCCCN)C(=O)N[C@@H](CC(N)=O)C(=O)N[C@@H](Cc1ccc(O)cc1)C(N)=O)C(C)C)C(C)C [compound 2] (Ac-DPVVEEHFRRSLGKNY-NH2) | 19.4 | 21.8 | 
CC[C@H](C)[C@H](NC(=O)[C@H](CO)NC(=O)[C@@H](NC(=O)[C@H](CO)NC(=O)[C@H](CC(N)=O)NC(=O)[C@@H]1CCCN1C(=O)[C@H](C)NC(=O)[C@@H]1CCCN1C(=O)[C@H](CCC(=O)O)NC(=O)[C@@H]1CCCN1C(=O)[C@H](CCC(=O)O)NC(=O)[C@H](CCCCN)NC(C)=O)C(C)C)C(=O)N[C@H](C(=O)NCC(N)=O)[C@@H](C)O [compound 3] (Ac-KEPEPAPNSVSITG-NH2) | > 100 | > 100 | 
CC[C@H](C)[C@H](NC(=O)[C@H](CCC(N)=O)NC(=O)[C@H](CC(C)C)NC(=O)[C@H](Cc1c[nH]c2ccccc12)NC(=O)[C@@H](NC(=O)[C@H](CC(=O)O)NC(C)=O)[C@@H](C)O)C(=O)N[C@@H](CCCCN)C(=O)N[C@@H](C)C(=O)N[C@@H](C)C(N)=O [compound 6] (Ac-DTWLQIKAA-NH2) | > 100 | > 100 | 
CC[C@H](C)[C@H](NC(=O)[C@H](CCC(N)=O)NC(=O)[C@H](CC(C)C)NC(=O)[C@H](Cc1c[nH]c2ccccc12)NC(=O)[C@@H](NC(=O)[C@H](CC(=O)O)NC(=O)CNC(=O)[C@H](CC(C)C)NC(=O)[C@H](C)NC(=O)[C@H](CCCCN)NC(=O)[C@H](C)NC(=O)[C@H](Cc1ccccc1)NC(=O)[C@H](Cc1c[nH]cn1)NC(=O)[C@H](CC(=O)O)NC(=O)[C@H](CC(=O)O)NC(=O)[C@@H](NC(=O)[C@H](CO)NC(C)=O)C(C)C)[C@@H](C)O)C(=O)N[C@@H](C)C(=O)N[C@@H](C)C(=O)N[C@@H](C)C(N)=O [compound 13] (Ac-SVDDHFAKALGDTWLQIAAA-NH2) | 17 | 12 | 
CC[C@H](C)[C@@H]1NC(=O)[C@H](CCC(N)=O)NC(=O)[C@H](CC(C)C)NC(=O)[C@H](Cc2c[nH]c3ccccc23)NC(=O)[C@H]([C@@H](C)O)NC(=O)[C@H](CC(=O)O)NC(=O)CNC(=O)[C@H](CC(C)C)NC(=O)[C@H](C)NC(=O)[C@H](CCCCN)NC(=O)[C@H](C)NC(=O)[C@H](Cc2ccccc2)NC(=O)[C@H](Cc2c[nH]cn2)NC(=O)[C@H](CC(=O)O)NC(=O)[C@@H](NC(=O)[C@@H](NC(=O)[C@H](C)NC(C)=O)C(C)C)CCC(=O)NCCCC[C@@H](C(=O)N[C@@H](C)C(=O)N[C@@H](C)C(N)=O)NC1=O [compound 14] (Ac-AVEDHFAKALGDTWLQIKAA-NH2; lactam 3-18) | 1.5 ± 0.02 |  | 
CC[C@H](C)[C@@H]1NC(=O)[C@H](CCC(N)=O)NC(=O)[C@H](CC(C)C)NC(=O)[C@H](Cc2c[nH]c3ccccc23)NC(=O)[C@H]([C@@H](C)O)NC(=O)[C@H](CC(=O)O)NC(=O)CNC(=O)[C@H](CC(C)C)NC(=O)[C@H](C)NC(=O)[C@H](CCCCN)NC(=O)[C@H](C)NC(=O)[C@H](Cc2ccccc2)NC(=O)[C@H](C)NC(=O)[C@H](CC(=O)O)NC(=O)[C@@H](NC(=O)[C@@H](NC(=O)[C@H](CO)NC(C)=O)C(C)C)CCC(=O)NCCCC[C@@H](C(=O)N[C@@H](C)C(=O)N[C@@H](C)C(N)=O)NC1=O [compound 17] (Ac-SVEDAFAKALGDTWLQIKAA-NH2; lactam 3-18) | > 100 | > 100 | IC50 (mTEAD4 [3]): > 100 µM
CC[C@H](C)[C@@H]1NC(=O)[C@H](CCC(N)=O)NC(=O)[C@H](CC(C)C)NC(=O)[C@H](Cc2c[nH]c3ccccc23)NC(=O)[C@H]([C@@H](C)O)NC(=O)[C@H](CC(=O)O)NC(=O)CNC(=O)[C@H](CC(C)C)NC(=O)[C@H](C)NC(=O)[C@H](C)NC(=O)[C@H](C)NC(=O)[C@H](Cc2ccccc2)NC(=O)[C@H](Cc2c[nH]cn2)NC(=O)[C@H](CC(=O)O)NC(=O)[C@@H](NC(=O)[C@@H](NC(=O)[C@H](CO)NC(C)=O)C(C)C)CCC(=O)NCCCC[C@@H](C(=O)N[C@@H](C)C(=O)N[C@@H](C)C(N)=O)NC1=O [compound 19] (Ac-SVEDHFAAALGDTWLQIKAA-NH2; lactam 3-18) | 1.7 ± 0.01 |  | 
CC[C@H](C)[C@@H]1NC(=O)[C@H](CCC(N)=O)NC(=O)[C@H](CC(C)C)NC(=O)[C@H](Cc2c[nH]c3ccccc23)NC(=O)[C@H](C)NC(=O)[C@H](CC(=O)O)NC(=O)CNC(=O)[C@H](CC(C)C)NC(=O)[C@H](C)NC(=O)[C@H](CCCCN)NC(=O)[C@H](C)NC(=O)[C@H](Cc2ccccc2)NC(=O)[C@H](Cc2c[nH]cn2)NC(=O)[C@H](CC(=O)O)NC(=O)[C@@H](NC(=O)[C@@H](NC(=O)[C@H](CO)NC(C)=O)C(C)C)CCC(=O)NCCCC[C@@H](C(=O)N[C@@H](C)C(=O)N[C@@H](C)C(N)=O)NC1=O [compound 22] (Ac-SVEDHFAKALGDAWLQIKAA-NH2; lactam 3-18) |  | 113 ± 3.5 | IC50 (mTEAD4 [3]): > 100 µM
CC[C@H](C)[C@@H]1NC(=O)[C@H](CCC(N)=O)NC(=O)[C@H](CC(C)C)NC(=O)[C@H](C)NC(=O)[C@H]([C@@H](C)O)NC(=O)[C@H](CC(=O)O)NC(=O)CNC(=O)[C@H](CC(C)C)NC(=O)[C@H](C)NC(=O)[C@H](CCCCN)NC(=O)[C@H](C)NC(=O)[C@H](Cc2ccccc2)NC(=O)[C@H](Cc2c[nH]cn2)NC(=O)[C@H](CC(=O)O)NC(=O)[C@@H](NC(=O)[C@@H](NC(=O)[C@H](CO)NC(C)=O)C(C)C)CCC(=O)NCCCC[C@@H](C(=O)N[C@@H](C)C(=O)N[C@@H](C)C(N)=O)NC1=O [compound 23] (Ac-SVEDHFAKALGDTALQIKAA-NH2; lactam 3-18) |  | 15 ± 0.85 | IC50 (mTEAD4 [3]): > 50 µM
